Data as given in US20080261994A1, “CYCLOPROPANE COMPOUNDS AND PHARMACEUTICAL USE THEREOF” (Japan Tobacco Inc., priority 2003, published 2008).
Like-named read-outs stand apart in the source and are kept apart here.

Assays:
Assay type in all cases: biochemical
aggrecanase-1 = target: T1, aggrecanase-1 (Homo sapiens, UniProt O75173); assay: Aggrecanase-1 inhibitory action (Particle Assay, GAG release from aggrecan-containing polyacrylamide particles)
T1 sequence (O75173 213-837): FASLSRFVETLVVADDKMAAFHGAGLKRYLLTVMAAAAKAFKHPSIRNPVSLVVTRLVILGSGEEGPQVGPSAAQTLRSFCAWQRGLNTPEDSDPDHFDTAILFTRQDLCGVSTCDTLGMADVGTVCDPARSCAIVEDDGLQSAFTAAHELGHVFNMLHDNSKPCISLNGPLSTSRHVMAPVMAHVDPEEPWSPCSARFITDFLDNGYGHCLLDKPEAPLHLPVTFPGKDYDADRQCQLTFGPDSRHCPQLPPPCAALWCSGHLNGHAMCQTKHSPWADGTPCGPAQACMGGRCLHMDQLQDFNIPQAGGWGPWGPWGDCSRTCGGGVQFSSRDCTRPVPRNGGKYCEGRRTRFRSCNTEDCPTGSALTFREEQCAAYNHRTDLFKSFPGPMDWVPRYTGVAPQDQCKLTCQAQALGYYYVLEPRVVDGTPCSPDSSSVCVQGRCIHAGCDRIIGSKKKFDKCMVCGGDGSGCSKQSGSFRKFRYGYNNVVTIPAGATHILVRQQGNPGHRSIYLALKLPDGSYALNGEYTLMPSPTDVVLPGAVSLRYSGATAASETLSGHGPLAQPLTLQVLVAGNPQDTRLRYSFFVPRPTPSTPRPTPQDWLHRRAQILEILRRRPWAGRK
Procedure, shortened: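 Enzyme and compound incubated with aggrecan-containing polyacrylamide particles in Tris-HCl buffer at 37° C for 15 h. Released GAG in supernatant measured with 1,9-dimethylmethylene blue at 595 nm against chondroitin sulfate standard; % inhibition from enzyme-free and inhibitor-free wells, reported as TC50 (μM).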

MMP-1 = target: T2, MMP-1 (Homo sapiens, UniProt P03956); assay: MMP-1 inhibitory action (Type I collagen Activity Measurement kit, FITC-labeled collagen type I)
T2 sequence (P03956 100-469): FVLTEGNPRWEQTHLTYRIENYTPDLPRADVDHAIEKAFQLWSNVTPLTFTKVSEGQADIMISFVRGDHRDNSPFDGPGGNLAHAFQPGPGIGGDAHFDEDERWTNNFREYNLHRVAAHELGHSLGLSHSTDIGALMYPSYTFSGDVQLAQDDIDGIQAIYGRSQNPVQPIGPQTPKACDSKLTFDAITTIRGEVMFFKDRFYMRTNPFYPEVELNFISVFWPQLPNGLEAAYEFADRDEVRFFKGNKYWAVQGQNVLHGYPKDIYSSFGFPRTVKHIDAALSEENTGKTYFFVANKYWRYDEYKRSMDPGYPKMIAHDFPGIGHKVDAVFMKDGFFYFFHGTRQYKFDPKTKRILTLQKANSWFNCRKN

Recombinant Human MMP-13 = target: T3, Recombinant Human MMP-13 (Homo sapiens, UniProt P45452); assay: MMP-13 inhibitory activity (MMP-13 specific fluorescent substrate with quencher)
T3 construct: purchased R&D systems 511-MM
Procedure, shortened: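 Recombinant human MMP-13 with test compound, reaction started with quenched fluorogenic peptide 7-MCA-Pro-CHA-Gly-NVal-His-Ala-DPA in Tris-HCl buffer, 1 h at 25 °C, stopped with acetic acid. Fluorescence at Ex 325/Em 405 nm; % inhibition versus enzyme-free and inhibitor-free wells, reported as IC50 (μM).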

[1] = aggrecanase-1 inhibitory action, read-out: IC50 AG1 (Experimental Example 1)
[2] = MMP-1 inhibitory action, FITC-labeled collagen type I, 37° C. for 3 hr, read-out: IC50 MMP1 (Experimental Example 2)
[3] = Recombinant Human MMP-13, fluorescent substrate, 25° C. for 1 h, read-out: IC50 MMP13 (Experimental Example 3)
[4] = Experimental Example 1, read-out: IC50 AG1
[5] = Experimental Example 2, read-out: IC50 MMP1
[6] = Experimental Example 3, read-out: IC50 MMP13

SMILES	IC50 (aggrecanase-1; [1]) [nM]	IC50 (MMP-1; [2]) [nM]	IC50 (Recombinant Human MMP-13; [3]) [nM]	IC50 (aggrecanase-1; [4]) [nM]	IC50 (MMP-1; [5]) [nM]	IC50 (Recombinant Human MMP-13; [6]) [nM]
O=C(O)[C@]1(NS(=O)(=O)c2ccc(-c3cc(CF)sn3)s2)C[C@@H]1c1ccccc1 [Example 2-120]	< 100	< 1000	< 100	–	–	–
O=C(O)[C@]1(NS(=O)(=O)c2ccc(-c3noc4c3CCCC4)s2)C[C@@H]1c1ccccc1 [Example 2-154]	≥ 1000	≥ 10000	< 1000	–	–	–
CN(C)CCSCC1(c2ccccc2)CC1(NS(=O)(=O)c1ccc(-c2ccc(Cl)cc2)s1)C(=O)O (stereo not drawn) [Example 2-337]	–	–	–	< 1000	≥ 10000	< 1000
CC1(C)C(c2ccccc2)C1(NS(=O)(=O)c1ccc(-c2ccc(Cl)cc2)s1)C(=O)O (stereo not drawn) [Example 2-274]	–	–	–	< 100	≥ 10000	≥ 1000
O=C(O)C1(NS(=O)(=O)c2ccc(-c3ccc(Cl)cc3)s2)CC1c1cccc(OCc2ccccn2)c1 (stereo not drawn) [Example 1-108]	< 100	≥ 1000	< 100	–	–	–
CS(=O)(=O)Nc1cccc(C2CC2(NS(=O)(=O)c2ccc(-c3ccc(Cl)cc3)cc2)C(=O)O)c1 (stereo not drawn) [Example 1-38]	< 100	≥ 10000	< 100	–	–	–
CN1CCN(C(=O)CCc2cccc(C3CC3(NS(=O)(=O)c3ccc(-c4cc(C(F)(F)F)on4)s3)C(=O)O)c2)CC1 (stereo not drawn) [Example 2-235]	< 1000	≥ 1000	< 100	–	–	–
O=C(O)[C@]1(NS(=O)(=O)/C=C/c2cccc(Cl)c2)C[C@@H]1c1ccccc1 [Example 2-153]	≥ 10000	≥ 10000	≥ 1000	–	–	–
O=C(NO)C1(NS(=O)(=O)c2ccc(OCc3ccc(Cl)cc3Cl)cc2)CC1c1ccccc1 (stereo not drawn) [Example 1-2, 1-[4-(2,4-Dichlorobenzyloxy)benzenesulfonylamino]-2-phenylcyclopropanecarboxylic acid hydroxyamide]	< 100	≥ 1000	< 100	–	–	–
O=C(O)C1(NS(=O)(=O)c2ccc(-c3ccc(Cl)cc3)s2)CC1c1cccc(OCc2ccccc2)c1 (stereo not drawn) [Example 2-36]	< 1000	≥ 10000	< 1000	–	–	–
O=C(O)C1(NS(=O)(=O)c2ccc(-c3ccc(Cl)cc3)cc2)CC1c1ccc(Oc2ccccc2)cc1 (stereo not drawn) [Example 1-16]	< 1000	≥ 1000	< 100	–	–	–
O=C(NCC(F)(F)F)c1ccc(S(=O)(=O)NC2(C(=O)O)CC2c2ccccc2)s1 (stereo not drawn) [Example 2-106]	≥ 10000	≥ 10000	≥ 10000	–	–	–
O=C(O)C1(NS(=O)(=O)c2ccc(-c3ccc(Cl)cc3)cc2)CC1c1cccc(OCCn2cccn2)c1 (stereo not drawn) [Example 1-75]	< 1000	≥ 1000	< 100	–	–	–
O=C(O)C1(NS(=O)(=O)c2ccc(-c3ccc(Cl)cc3)s2)CC1c1ccccc1OCc1ccccc1 (stereo not drawn) [Example 1-84]	< 1000	≥ 10000	< 1000	–	–	–
O=C(O)[C@]1(NS(=O)(=O)c2ccc(-c3cc(C(F)(F)C(F)(F)F)on3)s2)C[C@@H]1c1ccccc1 [Example 2-111]	≥ 1000	≥ 10000	< 1000	–	–	–
O=C1CCCCN1c1ccc(S(=O)(=O)N[C@@]2(C(=O)O)C[C@@H]2c2ccccc2)s1 [Example 2-164]	≥ 10000	≥ 10000	≥ 10000	–	–	–
CC(C)(CO)NC(=O)c1ccccc1C1CC1(NS(=O)(=O)c1ccc(-c2ccc(Cl)cc2)s1)C(=O)O (stereo not drawn) [Example 2-78]	< 100	≥ 10000	< 1000	–	–	–
O=C(O)C1(NS(=O)(=O)c2ccc(-c3ccc(Cl)cc3)s2)CC1c1ccccc1OCc1ccccn1 (stereo not drawn) [Example 2-23]	< 1000	≥ 10000	< 1000	–	–	–
O=C(CCc1cccc(C2CC2(NS(=O)(=O)c2ccc(-c3ccc(Cl)cc3)s2)C(=O)O)c1)N1CCOCC1 (stereo not drawn) [Example 2-209]	< 100	≥ 1000	< 100	–	–	–
CC1[C@H](c2ccccc2)[C@]1(NS(=O)(=O)c1ccc(-c2cc(C(F)(F)F)on2)s1)C(=O)NO (stereo partly drawn) [Example 2-323]	–	–	–	≥ 1000	≥ 1000	< 100

Next, values leading:

IC50 (aggrecanase-1; [1]) [nM]	IC50 (MMP-1; [2]) [nM]	IC50 (Recombinant Human MMP-13; [3]) [nM]	IC50 (aggrecanase-1; [4]) [nM]	IC50 (MMP-1; [5]) [nM]	IC50 (Recombinant Human MMP-13; [6]) [nM]	SMILES
–	–	–	< 1000	≥ 10000	≥ 1000	CC1(c2ccc(F)cc2)CC1(NS(=O)(=O)c1ccc(-c2cc(C(F)(F)F)on2)s1)C(=O)O (stereo not drawn) [Example 2-340]
–	–	–	≥ 1000	≥ 1000	≥ 1000	C[C@]1(c2ccccc2)C[C@@]1(NS(=O)(=O)c1ccc(-c2cccnc2)s1)C(=O)O [Example 2-527]
–	–	–	≥ 1000	≥ 10000	≥ 1000	CC1CCC(N2CCN(S(=O)(=O)N[C@@]3(C(=O)O)C(C)[C@@H]3c3ccccc3)CC2)CC1 (stereo partly drawn) [Example 2-442]
–	–	–	< 100	< 1000	< 1000	C[C@]1(c2ccccc2)C[C@@]1(NS(=O)(=O)c1ccc(-c2cc(C(F)F)no2)s1)C(=O)O [Example 2-422]
–	–	–	< 100	< 1000	< 100	CC1[C@H](c2ccccc2)[C@]1(NS(=O)(=O)c1ccc(-c2cc(C#N)on2)s1)C(=O)O (stereo partly drawn) [Example 2-579]
–	–	–	< 100	≥ 1000	< 100	CC(=O)N1CCC2C(c3ccccc31)C2(NS(=O)(=O)c1ccc(-c2ccc(Cl)cc2)s1)C(=O)O (stereo not drawn) [Example 2-439]
–	–	–	≥ 1000	≥ 1000	≥ 1000	CC1C(c2ccccc2)C1(NS(=O)(=O)c1ccc(CCc2ccccc2)s1)C(=O)O (stereo not drawn) [Example 2-541]
–	–	–	≥ 1000	≥ 1000	≥ 1000	CC1[C@H](c2ccccc2)[C@]1(NS(=O)(=O)N1CCC(Oc2cccc(Cl)c2)C1)C(=O)O (stereo partly drawn) [Example 2-501]
–	–	–	< 1000	≥ 10000	≥ 1000	CC1[C@H](c2ccccc2)[C@]1(NS(=O)(=O)N1CCCN(c2ccc(Cl)cc2)CC1)C(=O)O (stereo partly drawn) [Example 2-454]
–	–	–	< 100	≥ 1000	< 100	CC1[C@H](c2ccccc2)[C@]1(NS(=O)(=O)c1ccc(-c2ccc(C(F)(F)F)cc2)s1)C(=O)O (stereo partly drawn) [Example 2-590]
–	–	–	≥ 1000	≥ 10000	≥ 1000	O=C(Nc1ccccc1)c1ccc(S(=O)(=O)N[C@@]2(C(=O)O)C[C@@H]2c2ccccc2)cc1 [Example 2-474]
–	–	–	< 100	< 1000	< 100	COCc1cc(-c2ccc(S(=O)(=O)N[C@@]3(C(=O)O)C(C)[C@@H]3c3ccccc3)s2)no1 (stereo partly drawn) [Example 2-404]
–	–	–	≥ 1000	≥ 1000	≥ 1000	COc1cc2c(cc1OC)CN(S(=O)(=O)N[C@@]1(C(=O)O)C(C)[C@@H]1c1ccccc1)CC2 (stereo partly drawn) [Example 2-528]
–	–	–	< 100	< 100	< 100	CC1[C@H](c2ccccc2)[C@]1(NS(=O)(=O)c1ccc(-n2cc(I)cn2)s1)C(=O)O (stereo partly drawn) [Example 2-543]
–	–	–	≥ 1000	≥ 1000	≥ 1000	CC(C)CCN1CCN(S(=O)(=O)N[C@@]2(C(=O)O)C[C@@H]2c2ccccc2)CC1 [Example 2-511]
–	–	–	< 100	< 1000	< 100	CC1[C@H](c2ccccc2)[C@]1(NS(=O)(=O)c1ccc(-c2ccc(Cl)c(CO)c2)s1)C(=O)O (stereo partly drawn) [Example 2-565]
–	–	–	< 100	< 1000	< 100	Cc1cc(-c2ccc(S(=O)(=O)NC3(C(=O)O)C4CCCc5ccccc5C43)s2)no1 (stereo not drawn) [Example 2-375]
